Data as given in patent publication US20210052544A1, “METHODS OF TREATING AND/OR […] USING NABILONE” (Solantech Inc., priority 2018, published 2021).

Test system: bedsores
Assay: Clinical observation of bedsores in dementia patients with agitation treated orally with nabilone
Type: in vivo
Method: Patients with dementia having agitation were treated orally at a dose of 0.5 mg nabilone twice a day initially and then going up to a total of 2 mg per day to reduce agitation. […] The number of patients where this effect was observed was six. The perceived impact on healing was significant with healing times varying between 3-6 weeks for small sores.

## CCCCCCC(C)(C)c1cc(O)c2c(c1)OC(C)(C)C1CCC(=O)CC21 (stereo not shown) [nabilone]
Oral 0.5 mg twice a day up to 2 mg per day
  large sores in treated patients: No large sores were observed
Patients who did have bedsores, oral 0.5 mg twice a day up to 2 mg per day
  healing of existing bedsores: the bedsores appeared to heal faster
Patients with dementia having agitation, oral 0.5 mg twice a day initially, up to total 2 mg per day, effect observed in six patients
  number and/or severity of bedsores: perceived reduction in the number and/or severity of bedsores
Small sores, oral 0.5 mg twice a day up to 2 mg per day
  healing times for small sores: 3-6 weeks
